Laboratory results taken from US20180289702A1, “LPA LEVEL REDUCTION FOR TREATING CENTRAL NERVOUS SYSTEM DISORDERS” (priority 2015, published 2018).

How the values were obtained:
PRG-1 Ko mice = test: mEPSC recordings with PF8380, PRG-1 Ko; type: cell-based; conditions: 1 μM
mice = test: food intake after overnight food deprivation; type: in vivo
Source text: Metabolic alterations like overnight fasting induce changes in LPA subtype composition (Ino M et al. 2012). This correlates with the increased activity of ATX after overnight food deprivation, the availability of the ATX substrate LPC but also with the substrate preferences of ATX for unsaturated LPCs. In order to understand the cortical effects of altered LPA-composition upon fasting, the inventors analyzed food consumption after overnight food deprivation in control and PF8380-treated animals. […] However, overnight food deprivation was not related to hyperlocomotion since travelled distance in an open field setting was not different between control, overnight food deprived and PF-treated overnight food deprived animals (FIG. 19B).

PRG-1+/− mice = test: MCAO stroke model in PRG-1+/− mice; type: in vivo
Method: For stroke experiments, mice were anesthetized and occlusion of the medial cerebral artery (MCAO) was performed for 30 min (assessment after 3 days) or for 1 h (assessment after 1day) by introduction of an intraluminal filament as reported (Ploen et al., 2014). […] After 1 h or after 30 min of MCAO, respectively, mice recovered and were perfused 24 hours (1 h MCAO) or 72 hours (30 min MCAO) later. Brains were extracted, snap frozen and cryosectioned using a cryotome. Mounted brain slices were Nissl-Stained which allowed to measure infarct area and to calculate total infarct volume per animal. All measurements were performed in a blinded fashion. Data was assessed for normality and statistical analysis was performed using an one-tailed t-test.

PRG1−/− mice [1] = test: simultaneous in-vivo recordings of MEC and hippocampal CA1 in freely moving mice
Method: Electrophysiological measurements in freely moving animals were performed as described (O'Neill PK et al. 2013). Briefly, animals were kept during surgical procedures under isoflurane anesthesia and electrodes (WE3PT10.5F3, MicroProbes, Gaithersburg, Md., USA) were chronically implanted in the medial entorhinal cortex (MEC; 3.1 mm, lateral to the midline, 0.2 mm anterior to the transverse sinus at an angle of 6° in the anterior-to-posterior direction in the sagittal plane) and in the hippocampal CA1-region (1.5 mm lateral to the midline, 1.5 mm anterior-to-posterior and 1.2 mm dorsal-to-ventral at an angle of 0°). The electrodes were connected to an electrode interface board (EIB-16; Neuralynx, USA) and were secured to the skull using jewelers screws and dental cement. Neural data was acquired using a 16-channel head stage and a Digital Lynx data acquisition system (Neuralynx, USA). The animal's position was monitored using two light-emitting diodes mounted on the head stage. To extract local field potentials, the neural signals were bandpass filtered between 1 and 1000 Hz and digitized at 2 kHz. Separate recordings, each lasting 10 minutes, were made while animals moved freely in their home cage in an open field (0.5 m×0.5 m×0.5 m) and in a plus-maze with a length of 0.4 m per arm. Recordings were repeated for two days. Analysis of neural and behavioral data was performed using custom-written MATLAB scripts (MathWorks). Recording location was verified by current application at the end of the experiment after which animals were perfused, and the brains were cut on a vibratome and Nissl stained using cresyl violet.
Coherence of neuronal activity between the MEC and in the CA1 was computed using the multitaper method (MATLAB routines provided by K. Harris, University College London, London, UK, and G. Buzsáki, New York University, New York, N.Y., USA). […] Power was calculated by taking the absolute value of the wavelet transform and averaged across time to obtain the power spectrum. […]

[2] = PF8380 concentration in serum and cerebrospinal fluid by mass spectrometry; type: in vivo, mice
Method: Animals were treated using the in-vivo potent autotaxin inhibitor PF 8380 (Gierse et al., 2010). Animals received a single i.p. injection 3 hours prior to PPI.
Nanoscale UPLC separation was performed with a nanoAcquity UPLC system (Waters Corporation) equipped with a PepSwift Monolithic PS-DVB, 200 μm×5 cm analytical column (Thermo Scientific Dionex). For analysis, samples (300 nL) were directly injected onto the analytical column. Mobile phase A was water containing 0.1% v/v formic acid, while mobile phase B was ACN containing 0.1% v/v formic acid. Samples were separated at 55° C. with a gradient of 1-35% mobile phase B over 20 min at a flow rate of 800 nL/min. The column was rinsed for 7 min with 99% mobile phase B, followed by a re-equilibration step at initial conditions resulting in total analysis times of 40 min.
Mass spectrometric analysis of PF-8380 was performed in positive mode ESI using a Synapt G2-S HDMS mass spectrometer (Waters Corporation). Samples were analyzed using a targeted MS-method isolating the singly charged precursor of PF-8380. […] All samples and references were analyzed in three technical replicates.
Raw data were analyzed manually using MassLynx V4.1 Software (Waters Corporation). Extracted ion chromatograms of fragment ions at m/z 301 were used for quantitative analysis calculating the area under the curve. […]

PRG1−/− mice [3] = test: Morris water maze; type: in vivo; conditions: untreated and PF8380-treated PRG1−/− mice, during training days
Method: For MWM the escape latency, swim speed, path length, and trajectory of swimming were recorded for each mouse. First, mice were trained for 5 days in “visible platform” task, than for 6 days in “hidden platform” task (spatial training), followed by a “probe trial”, which was repeated for 4 times. Mice received daily 4 trials for a maximum of 90 s with an intertrial interval of 5 min. The swim velocity (mean and max) and the immobility time (time spend not searching) were measured.

O=C(CCN1CCN(C(=O)OCc2cc(Cl)cc(Cl)c2)CC1)c1ccc2[nH]c(=O)oc2c1 [PF8380, 4-[3-(2,3-Dihydro-2-oxo-6-benzoxazolyl)-3-oxopropyl]-1-piperazinecarboxylic acid (3,5-dichlorophenyl)methyl ester]
mEPSC amplitude (PRG-1 Ko mice): not influencing
mEPSC frequency (PRG-1 Ko mice): significantly reduced
food intake (mice; control mice (not food deprived)): does not alter
food intake (mice; overnight food deprived animals, within 60 min): significantly decreased
infarct volume (PRG-1+/− mice; 30 min MCAO measured 3 d after stroke): significantly decreased
outcome in modified Neurologic Severity Score (PRG-1+/− mice; 3 h, 24 h, 48 h and 72 h post MCAO): significantly improves
long-term sensorimotor dysfunction, corner test (PRG-1+/− mice; 24 h up to 72 h post MCAO): significantly improved
gamma coherence between MEC and CA1 (PRG1−/− mice [1]; PF8380 treated PRG1−/− mice): reduced to WT levels
peak frequency of theta coherence between MEC and CA1 (PRG1−/− mice [1]; PF8380 treated PRG1−/− mice compared with WT mice): lower
average movement speed during exploratory behavior in the open field (PRG1−/− mice [1]; wild type, untreated and PF8380-treated PRG-1−/− mice): no difference
concentrations in the serum ([2]; in-vivo application 30 mg/KG/BW): robust concentrations
concentration at 3 h ([2]; mouse, cerebrospinal fluid, ip, 30 mg/KG/BW, single i.p. injection, 3 hours after injection): ≤ 420 nM
escape latency in the Morris-Water-Maze (PRG1−/− mice [3]): did not change
